# Measurements from patent US20240366648A1, “NAD-AUGMENTATION THERAPY FOR PARKINSON'S DISEASE” (Vestlandets Innovasjonsselskap AS (VIS), priority 2021, published 2024).
# Legend:
# mice = details: Xie et al. 2019; cited from earlier work
# individuals with PD = assay: Phase II trial, brain MRI at baseline and week 52 (Example 3); assay type: in vivo, human; details: 80 individuals who completed 52 weeks (1000 mg NR or placebo, blinded)
# Protocol: To further test NR as a neuroprotective therapy for PD, and in particular to assess NR in delaying nigrostriatal degeneration or denervation, and clinical disease progression in patients with early PD, a multi-centre phase II randomized double-blinded clinical trial is performed, comparing NR to placebo in individuals with early stage PD.
# Each capsule of NR contains 250 mg of NR. Patients are administered orally 2 capsules (each 250 mg) two times a day (1000 mg daily total) for the duration of the study (52 weeks). Placebo capsules are administered similarly (2 capsules two times a day). The study medication is to be taken every day during the treatment period, including prior to study visits and imaging.
# The present study is a randomized, double-blind phase 11 trial, where a total of 400 individuals with PD receive 1000 mg NR or placebo for a period of 52 weeks. Extensive medical testing and screening, including brain MRI, is performed both at baseline and end-of-study (i.e., after 52 weeks of exposure). […] The therapy can therefore be considered not to be associated with an increase in glioma or brain neoplasm prevalence over the duration of treatment.
# [1] = test system: GDF15, FGF21, Nf-L, inflammatory cytokines; assay: Nf-L, GDF15, FGF21 and cytokine detection in serum and CSF; assay type: in vivo, human
# Protocol: Neurofilament light chain (Nf-L) measurement in CSF and serum samples was carried out in duplicates using the Simoa NF-light Advantage (SR-X) Kit (Quanterix) according to the manufacturer's recommendations and analyzed on an Simoa SR-X instrument (Quanterix). GDF15 and FGF21 detection was carried out using ELISA kits GDF-15/MIC-1 Human ELISA (RD191135200R) and Fibroblast Growth Factor 21 Human ELISA (RD191108200R) from BioVendor according to manufacturer's recommendations. For CSF analyses of GDF15, CSF was diluted 1:2 in dilution buffer. All samples were analyzed twice in duplicates. Inflammatory Cytokine screening was carried out using the Human Cytokine Magnetic 35-plex panel (Invitrogen), detecting FGF-Basic, IL-1 beta, G-CSF, IL-10, IL-13, IL-6, IL-12, RANTES, Eotaxin, IL-17A, MIP-1 alpha, GM-CSF, MIP-1 beta, MCP-1, IL-15, EGF, IL-5, HGF, VEGF, IL-1 alpha, IFN-gamma, IL-17F, IFN-alpha, IL-9, IL-1RA, TNF-alpha, IL-3, IL-2, IL-7, IP-10, IL-2R, IL-22, MIG, IL-4, IL-8. CSF and serum samples were analyzed according to the manufacturer's recommendations and measured on a BioPlex 200 instrument (BioRad).
# The between visit change ([visit 2]−[visit 1]) in MDS-UPDRS (total of subsections I-III; and individual subsections I, II and III) was compared between the NR and placebo groups using independent Student's t-test. In addition, the between visit change in MDS-UPDRS (total and subsections) within the NR, MRS-responder, and placebo groups was assessed by paired Student's t-test. For the 31P-MRS analyses, the change in measured metabolites between visit 1 and visit 2 was assessed in the placebo- and NR group using paired Student's t-test. In addition, the between-visit change in NAD/ATP-α was compared between the NR and placebo group by independent Student's t-test. For PET analyses, changes in network scores with treatment were evaluated for each group separately using paired Student's t-tests or permutation tests. Relationships between network values, NAD levels and MDS-UPDRS motor ratings or between treatment-related changes in these variables were evaluated using Pearson's product-moment correlations; Spearman rank-order correlation coefficients were computed for non-normal distributions of the variables. These statistical tests were performed using SPSS (SPSS Inc., Chicago, IL); results were considered significant for p≤0.05 (two-tailed). Metabolite quantification data, Nf-L; GDF15, FGF21 and cytokine data were analyzed by paired sample Wilcoxon test using GraphPad Prism v 6.07.
# total NAD in PBMCs = assay: NAD measurement in PBMCs, NADMed method; assay type: in vivo, human
# Source text: In addition to these analyses, we measured NAD levels in patient PBMC using a different approach (NADMed method). […] However, the trend was clear and convincing.
# FIG. 16: NAD measurement in PBMCs from the study cohort, using the NADMed method.
structure (smiles),measurement,setting,value
"NC(=O)c1ccc[n+]([C@@H]2O[C@H](CO)[C@@H](O)[C@H]2O)c1 [NR, nicotinamide riboside]",neuroprotection in mice,mice,neuroprotective effects
same,cases of glioma or other brain neoplasms on brain MRI,individuals with PD,no cases of glioma or any other brain neoplasms
same,FGF21 in serum,"[1]; NR group, visit 2 vs visit 1",unchanged
same,GDF15 levels in CSF (decrease),"[1]; NR group, visit 2 vs visit 1",not in CSF
same,GDF15 levels in serum,"[1]; NR group, visit 2 vs visit 1",mild but significant decrease
same,neurofilament light chain (Nf-L) levels in serum and CSF,"[1]; NR group, visit 2 vs visit 1",unchanged
same,levels of several inflammatory cytokines in serum and CSF,"[1]; NR group, within-group, visit 2 vs visit 1",reduced
same,"fold change of serum cytokines that also decreased in placebo, compared between groups",[1]; NR vs placebo,no significant difference
same,"NAD levels in PBMC, between visits","total NAD in PBMCs; NR group, did not reach statistical significance in paired t-test",increase
same,"between visit change in PBMC NAD levels, NR vs placebo group",total NAD in PBMCs; p=0.0256,significantly higher increase
